In ChEMBL document CHEMBL5131478, “3,5-Bis(trifluoromethyl)phenylsulfonamides, a novel pancreatic cancer active lead. Investigation of the terminal aromatic moiety” (Bioorg Med Chem Lett, 2022):
Values belong to the compound of their own block, whether it stands above or below them.

Columns and labels:
MCF-10A = test: Cytotoxicity against human MCF-10A cells assessed as inhibition of cell growth at 25 uM incubated for 72 hrs by MTT assay; type: toxicity, cell-based
DU-145 = test: Growth inhibition of human DU-145 cells incubated for 72 hrs by MTT assay; type: functional
HT-29 = test: Growth inhibition of human HT-29 cells incubated for 72 hrs by MTT assay; type: functional
A-431 = test: Growth inhibition of human A-431 cells incubated for 72 hrs by MTT assay; type: functional
PANC-1 = test: Growth inhibition of human PANC-1 cells incubated for 72 hrs by MTT assay; type: functional
MIA PaCa-2 = test: Growth inhibition of human MIA PaCa-2 cells incubated for 72 hrs by MTT assay; type: functional
U-87 MG = test: Growth inhibition of human U87 cells incubated for 72 hrs by MTT assay; type: functional, U-87MG ATCC
MCF7 = test: Growth inhibition of human MCF7 cells incubated for 72 hrs by MTT assay; type: functional
[1] = Growth inhibition of human SJG2 cells incubated for 72 hrs by MTT assay; type: functional; conditions: SJ-G2
Capan-2 = test: Growth inhibition of human Capan-2 cells incubated for 72 hrs by MTT assay; type: functional
ASPC1 = test: Growth inhibition of human ASPC1 cells incubated for 72 hrs by MTT assay; type: functional
[2] = Growth inhibition of human MCF-10A cells incubated for 72 hrs by MTT assay; type: toxicity, cell-based
A2780 = test: Growth inhibition of human A2780 cells incubated for 72 hrs by MTT assay; type: functional
BXPC-3 = test: Growth inhibition of human BXPC-3 cells incubated for 72 hrs by MTT assay; type: functional
NCI-H460 = test: Growth inhibition of human NCI-H460 cells incubated for 72 hrs by MTT assay; type: functional
BE(2)-C = test: Growth inhibition of human BE2C cells incubated for 72 hrs by MTT assay; type: functional
HPAC = test: Growth inhibition of human HPAC cells incubated for 72 hrs by MTT assay; type: functional

SMILES: O=S(=O)(NCCNCc1ccc(C(F)(F)F)cc1)c1cc(C(F)(F)F)cc(C(F)(F)F)c1
Activity (MCF-10A): Non-Toxic

SMILES: O=S(=O)(NCCNCc1ccc(Br)cc1)c1cc(C(F)(F)F)cc(C(F)(F)F)c1
Activity (MCF-10A): Non-Toxic

The next lines start with results.

GI50 (DU-145): 30 µM
GI50 (HT-29): 13 µM
GI50 (A-431): 25 µM
GI50 (PANC-1): 34 µM
GI50 (MIA PaCa-2): 29 µM
GI50 (U-87 MG): 25 µM
GI50 (MCF7): 25 µM
GI50 (ASPC1): 20 µM
GI50 (A2780): 14 µM
GI50 (BXPC-3): 20 µM
GI50 (NCI-H460): 19 µM
SMILES: COc1ccc(CNCCNS(=O)(=O)c2cc(C(F)(F)F)cc(C(F)(F)F)c2)cc1OC
GI50 [1]: 29 µM
GI50 (Capan-2): 34 µM
GI50 at 72 h [2]: 25 µM
GI50 (BE(2)-C): 23 µM
GI50 (HPAC): 16 µM

GI50 (DU-145): 4 µM
GI50 (HT-29): 2.7 µM
GI50 (A-431): 7 µM
GI50 (PANC-1): 18 µM
GI50 (MIA PaCa-2): 2.8 µM
GI50 (U-87 MG): 3.4 µM
GI50 (MCF7): 1.9 µM
GI50 (ASPC1): 6.4 µM
GI50 (A2780): 3.8 µM
GI50 (BXPC-3): 13 µM
GI50 (NCI-H460): 2.4 µM
SMILES: COc1ccc(CNCCCNS(=O)(=O)c2cc(C(F)(F)F)cc(C(F)(F)F)c2)cc1OC
GI50 [1]: 18 µM
GI50 (Capan-2): 15 µM
GI50 at 72 h [2]: 5.3 µM
GI50 (BE(2)-C): 3.6 µM
GI50 (HPAC): 3.5 µM

GI50 (DU-145): 2.7 µM
GI50 (HT-29): 2 µM
GI50 (A-431): 2.8 µM
GI50 (PANC-1): 2.5 µM
GI50 (MIA PaCa-2): 2.3 µM
GI50 (U-87 MG): 2.3 µM
GI50 (MCF7): 2.1 µM
GI50 (ASPC1): 2.7 µM
GI50 (A2780): 2.9 µM
GI50 (BXPC-3): 1.4 µM
GI50 (NCI-H460): 2.5 µM
SMILES: CC(C)(C)c1ccc(CNCCCNS(=O)(=O)c2cc(C(F)(F)F)cc(C(F)(F)F)c2)cc1
GI50 [1]: 2.4 µM
GI50 (Capan-2): 2.1 µM
GI50 at 72 h [2]: 3.2 µM
GI50 (BE(2)-C): 2.5 µM
GI50 (HPAC): 2.3 µM
